Experimental findings from patent US6831078B1, “Azetidinecarboxamide derivatives for treating CNS disorders” (Vernalis Research Limited, priority 1998, dated 2004) are described below.

Structures can show the parent of a compound that is named as a salt. Marks after values point to notes of the source that are not given here. Some results are limits rather than exact numbers.

The test system of the first data set is 3-MPA-Induced Seizures. Kind of data set: Antagonism of 3-MPA-induced seizures. The format is in vivo. The following applies: mg/kg i.v. of 3-MPA required to evoke a seizure response; test drug 30 mg/kg p.o. 60 min before 3-MPA; male T/O mice. Here is the method:
Several animal seizure models are available for the screening and characterisation of anticonvulsant (antiepileptic) drugs, Most models employ a chemical convulsant to induce seizures and the anticonvulsant potencies of novel compounds are measured in terms of their ability to increase the dose of convulsant required to induce a seizure response (or to prolong the latency to seizure onset following a bolus dose of the convulsant). Most chemical convulsants work by blocking the neurotran […] function of gamma-aminobutyric acid (GABA), the predominant inhibitory neurotransmitter in the mammalian brain. This can be achieved by blocking the postsynaptic action of GABA using pentylenetetrazol or bicuculline, or via a presynaptic action using a GABA synthesis inhibitor to decrease GABA release into the synapse. […] Male albino […] (obtained from Tuck) weighing 28-40 g were used in these studies. […] Immediately following 3-MPA administration, each mouse was placed individually into a cage for observation. The seizure response of each animal was scored quantally as present or absent (response or non-response) during the 5 min period immediately following 3-MPA administration. A seizure response was defined as the onset of the initial clonic phase of the seizure (abrupt loss of righting reflex accompanied by vocalisation). The seizure threshold (in terms of mg/kg i.v. of 3-MPA required to evoke a seizure response) was determined in each treatment group by a sequential up/down method followed by modified probit analysis of the quantal data. […] In these studies, 3-MPA was obtained from Sigma. […] Drugs were administered in a dose volume of 10 ml/kg body weight.
With `C=CCNC(=O)N1CC(c2ccc(C(C)(C)C)cc2)C1` [Example 2, 3-(4-tert-Butylphenyl)-N-(2-propenyl)azeddine-1-carboxamide], the “SC = Seizure threshold after treatment with test drug” value (“SC = Seizure threshold” for short) came to 24.2 mg/kg.

Take `C[C@@H](O)CNC(=O)N1CC(c2ccc(C(C)(C)C)cc2)C1` [Example 4, (R)-3-(4-tert-Butylphenyl)-N-(2-hydroxypropyl)azetidine-1-carboxamide]: the “SC = Seizure threshold” value was 27.3 mg/kg.

Consider `C=CCNC(=O)N1CC(c2ccc(F)cc2)C1` [Example 5, 3-(4-Fluoropbenyl)-N-(2-propenyl)azetidine-1-carboxamide], for which the “SC = Seizure threshold” value is recorded as 32.4 mg/kg.

Turning to `C#CCNC(=O)N1CC(c2cccc(C(F)(F)F)c2)C1` [Example 19, 3-(3-(Trifluoromethyl)phenyl)-N-(2-propynyl)azetidine-1-carboxamide], the “SC = Seizure threshold” value was >200.0^a mg/kg.

Take `C[C@H](O)CNC(=O)N1CC(c2ccc(F)cc2)C1` [Example 10]: the “SC = Seizure threshold” value worked out at 95.8 mg/kg.

Turning to `C=CCNC(=O)N1CC(c2ccc(Cl)cc2)C1` [Example 1], the “SC = Seizure threshold” value was 42.7 mg/kg.

As for `C[C@@H](O)CNC(=O)N1CC(c2ccc(Cl)cc2)C1` [Example 9, (R)-3-(4-Chlorophenyl)-N-(2-hydroxypropyl)azetidine-1-carboxiamide], the “SC = Seizure threshold” value is reported as 29.7 mg/kg.

In the case of `C#CCNC(=O)N1CC(c2ccc(Cl)cc2)C1` [Example 8, (3-(4-Chlorophenyl)-N-2-propynyl)azetidine-1-carboxamide], the “SC = Seizure threshold” value turned out to be 100 mg/kg.

In the case of `C[C@@H](O)CNC(=O)N1CC(c2ccc(F)cc2)C1` [Example 7, (R)-3-(4-Fluorophenyl)-N-(2-hydroxypropyl)azetidine-1-carboxamide], the “SC = Seizure threshold” value worked out at 54.4 mg/kg.

With `C[C@H](O)CNC(=O)N1CC(c2ccc(C(F)(F)F)cc2)C1` [Example 15], the “SC = Seizure threshold” value is 58.4 mg/kg.

Tested on in another data set: not given
Test: not given
Details: not given
For orientation: melting point means the temperature of the solid-liquid transition. `O=C(NCCO)N1CC(c2ccc(F)cc2)C1` [Example 57] came in with a melting point of 99 to 101 °C.

Compound `CC(C)(CO)NC(=O)N1CC(c2ccc(Cl)cc2)C1` [Example 41] had a melting point of 134 to 135 °C.

`CCCNC(=O)N1CC(c2ccc(F)cc2)C1` [Example 45] gave a melting point of 117 to 118.5 °C.

For the compound `CC[C@@H](O)CNC(=O)N1CC(c2ccc(F)cc2)C1` (hydrate or solvate) [Example 75], the melting point was in the range of 77 to 79 °C.

With `C#CCNC(=O)N1CC(c2cccc(F)c2)C1` [Example 72], the melting point was 101.5 to 110.25 °C.

In turn, `CC(C)(O)CNC(=O)N1CC(c2cccc(C(F)(F)F)c2)C1` [Example 56] gave a melting point of 94.5 to 96 °C.

Regarding `C[C@@H](O)CNC(=O)N1CC(c2cc(F)cc(Cl)c2)C1` [Example 70], the melting point lay in the range of 81 to 82.5 °C.

Regarding `CC(C)(O)CNC(=O)N1CC(c2cc(F)cc(Cl)c2)C1` [Example 68], the melting point fell in the range of 112.5 to 113.5 °C.

For the compound `C#CCNC(=O)N1CC(c2cccc(Cl)c2)C1` [Example 59], the melting point was 90 to 105 °C (dec.).

`C[C@@H](O)CNC(=O)N1CC(c2ccc(C(F)(F)F)cc2F)C1` [Example 58] showed a melting point of 106 to 107 °C.

In turn, `C[C@H](NC(=O)N1CC(c2ccc(Cl)cc2)C1)[C@H](O)c1ccccc1` [Example 42] came in with a melting point of 120 to 122 °C.

Compound `CC(C)(N)CNC(=O)N1CC(c2ccc(Cl)cc2)C1` (as salt: HCl) [Example 79] had a melting point of 183 to 184 °C.

For the compound `CC(C)(O)CNC(=O)N1CC(c2ccc(F)c(C(F)(F)F)c2)C1` [Example 64], the melting point was in the range of 110 to 111.5 °C.

With `C[C@@H](CO)NC(=O)N1CC(c2ccc(F)cc2)C1` [Example 77], the melting point fell in the range of 118 to 120 °C.

`C#CCNC(=O)N1CC(c2cc(F)cc(Cl)c2)C1` [Example 61]: the melting point is 108.5 to 110 °C.

Turning to `CC(C)(O)CNC(=O)N1CC(c2ccc(C(F)(F)F)cc2)C1` [Example 84], the melting point was 123 to 124 °C.

In turn, `O=C(N[C@@H]1CCCC[C@H]1O)N1CC(c2ccc(F)cc2)C1` [Example 76] gave a melting point of 141 to 142.5 °C.

Take `C[C@@H](O)CNC(=O)N1CC(c2cccc(F)c2)C1` [Example 83]: the melting point fell in the range of 77.5 to 79 °C.

`C[C@@H](O)CNC(=O)N1CC(c2ccccc2Cl)C1` [Example 34] had a melting point of 109 °C.

In turn, `C[C@@H](O)CNC(=O)N1CC(c2ccc(F)c(C(F)(F)F)c2)C1` [Example 27] yielded a melting point of 69 to 71 °C.

Regarding `O=C(NCCc1ccccn1)N1CC(c2ccc(Cl)cc2)C1` [Example 43], the melting point is 125 °C.

Regarding `C#CCNC(=O)N1CC(c2ccc(F)c(C(F)(F)F)c2)C1` [Example 28], the melting point worked out at 119 °C.

The compound `CCCNC(=O)N1CC(c2ccc(C(F)(F)F)cc2)C1` [Example 47] gave a melting point of 127 to 128.5 °C.

`C=CCNC(=O)N1CC(c2ccc(C(F)(F)F)cc2)C1` [Example 46]: the melting point is 136 to 137.5 °C.

In turn, `C#CCNC(=O)N1CC(c2ccccc2C(F)(F)F)C1` [Example 33] displayed a melting point of 101 °C.

Compound `C[C@@H](O)CNC(=O)N1CC(c2cccc(Cl)c2Cl)C1` [Example 35] displayed a melting point of 111 °C.

In turn, `NC(=O)N1CC(c2cc(F)cc(Cl)c2)C1` [Example 69] showed a melting point of 198 to 200.5 °C.

Compound `NCC1CCN(C(=O)N2CC(c3ccc(Cl)cc3)C2)CC1` [Example 44] yielded a melting point of 137 to 138 °C.

Take `C=CCNC(=O)N1CC(c2cccc(F)c2)C1` [Example 54]: the melting point was in the range of 62.5 to 63.5 °C.

In the case of `C=CCNC(=O)N1CC(c2cccc(Cl)c2)C1` [Example 53], the melting point lay within 65 to 66 °C.

Turning to `C[C@H](O)CNC(=O)N1CC(c2cc(Cl)cc(Cl)c2)C1` [Example 49], the melting point fell in the range of 110 to 111 °C.

As to `CC(C)(O)CNC(=O)N1CC(c2ccc(Cl)cc2)C1` [Example 66], the melting point is 114 to 115.5 °C.

On to `O=C(NCCCO)N1CC(c2ccc(F)cc2)C1` [Example 65], for which the melting point fell in the range of 90 to 93 °C.

On to `CC(C)(O)CNC(=O)N1CC(c2cccc(Cl)c2)C1` [Example 29], for which the melting point turned out to be 102 °C.

As for `C[C@H](O)CNC(=O)N1CC(c2cccc(Cl)c2)C1` [Example 51], the melting point lay within 78 to 80 °C.

`CCC(C)NC(=O)N1CC(c2ccc(F)cc2)C1` (stereo not drawn) [Example 74] returned a melting point of 100 to 102 °C.

`CC(O)CNC(=O)N1CC(c2ccc(Cl)cc2)C1` (stereo not drawn) [Example 71] had a melting point of 92.5 to 94 °C.

`C[C@H](O)CNC(=O)N1CC(c2cccc(F)c2)C1` [Example 48] displayed a melting point of 79.5 to 80 °C.

On to `C#CCNC(=O)N1CC(c2ccc(F)c(Cl)c2)C1` [Example 26], for which the melting point amounted to 133 °C.

Consider `C[C@@H](O)CNC(=O)N1CC(c2ccc(F)cc2F)C1` [Example 36], for which the melting point is 88 to 89 °C.

In turn, `NC(=O)N1CC(c2ccc(F)cc2)C1` [Example 67] had a melting point of 205 to 208.5 °C.

`C[C@@H](O)CNC(=O)N1CC(c2ccccc2C(F)(F)F)C1` [Example 32] had a melting point of 89 °C.

`C[C@@H](O)CNC(=O)N1CC(c2ccc(F)c(F)c2)C1` [Example 21] registered a melting point of 108 to 109 °C.

In turn, `C[C@@H](O)CNC(=O)N1CC(c2ccc(F)cc2)C1` [Example 7, (R)-3-(4-Fluorophenyl)-N-(2-hydroxypropyl)azetidine-1-carboxamide] yielded a melting point of 104 to 105 °C.

The compound `CC(=O)CNC(=O)N1CC(c2ccc(C(F)(F)F)cc2)C1` [Example 80] came in with a melting point of 139.5 to 141 °C.

`C#CCNC(=O)N1CC(c2ccc(Cl)c(F)c2)C1` [Example 31] came in with a melting point of 132 °C.

Compound `C[C@H](CO)NC(=O)N1CC(c2ccc(Cl)cc2)C1` [Example 40] registered a melting point of 82 to 85 °C.

Take `O=C(NC[C@H](O)CO)N1CC(c2ccc(Cl)cc2)C1` [Example 78]: the melting point lay within 90 to 92 °C.

As to `C[C@H](CO)NC(=O)N1CC(c2ccc(Cl)cc2)C1` [Example 39], the melting point was 71 to 75 °C.

In turn, `NC(=O)N1CC(c2cccc(C(F)(F)F)c2)C1` [Example 37] registered a melting point of 198 °C.

Consider `C#CCNC(=O)N1CC(c2ccc(F)c(F)c2)C1` [Example 25], for which the melting point is 123 °C.

For the compound `C[C@@H](O)CNC(=O)N1CC(c2ccc(F)c(Cl)c2)C1` [Example 23], the melting point fell in the range of 83 to 84 °C.

In the case of `COCC(C)NC(=O)N1CC(c2ccc(Cl)cc2)C1` (stereo not drawn) [Example 38], the melting point is 110 °C.

In turn, `CC(C)(O)CNC(=O)N1CC(c2ccc(F)cc2)C1` [Example 55] gave a melting point of 77 to 78.5 °C.

Compound `C=CCNC(=O)N1CC(c2cccc(C(F)(F)F)c2)C1` [Example 52] yielded a melting point of 64 to 66 °C.

`C[C@@H](O)CNC(=O)N1CC(c2ccc3ccccc3c2)C1` [Example 63]: the melting point is 143 to 144 °C.
